Measurements from article PMC12389711, “Study on the Excretion of a New Antihypertensive Drug 221s (2,9) in Rats” (Pharmaceuticals, 2025).
Read-outs that look alike come from different tables or passages of the source.

Columns and labels:
[1] = tested on: angiotensin II (Ang II) and angiotensin-converting enzyme (ACE); set-up: method as in PMID 37446639; conditions: SHR; cited from earlier work
[2] = Excretion study of unchanged drug in urine, feces and bile after oral administration (UPLC-MS/MS); assay type: in vivo, Sprague-Dawley rats; conditions: 30 mg/kg oral; for dose excreted: male, Sprague-Dawley, rat, at 72 h
Experimental: According to previous data, analytical separation was performed using an ultra-performance liquid chromatography-tandem mass spectrometry (UPLC-MS/MS) platform comprising a Waters ACQUITY UPLC H-Class (Waters, Milford, CT, USA) system coupled to an AB Sciex Triple Quad 6500 mass spectrometer (AB Sciex, Boston, MA, USA). Chromatographic resolution was achieved on a Waters ACQUITY UPLC BEH C18 column (1.7 μm, 2.1 × 50 mm) maintained at 40 °C. The mobile phase system incorporated two components: solvent A (0.02% formic acid and 5 mM NH4F in deionized water) and solvent B (acetonitrile), delivered at 0.2 mL/min with a 10 μL injection volume. The gradient program was configured as follows: 55% solvent A (0.0–0.6 min), 5% solvent A (0.6–2.5 min), followed by re-equilibration at 55% solvent A (2.5–5.0 min).
Mass spectrometric detection utilized positive electrospray ionization (ESI+) in MRM mode, monitoring precursor-to-product ion transitions at m/z 525.1→389.1 (221s (2,9)) and 357.0→220.9 (IS). Instrument parameters were optimized as follows: curtain gas 25 psi, ion source temperature 500 °C, GS1/GS2 pressures 50/40 psi, ion spray voltage 5 kV, and collision gas pressure 10 psi. Compound-dependent parameter settings included decluttering potential (DP), entrance potential (EP), collision cell exit potential (CXP), and collision energy (CE) of 160/10/5/63 V for 221s (2,9) and 70/10/5/20 V for IS. Data processing was executed using Analyst software (v1.6.3).
Six male Sprague-Dawley (SD) rats aged 8–10 weeks (body weight: 220–250 g) were individually housed in metabolic cages. Following a 12 h fasting period with free access to water, baseline urinary and fecal samples were collected as blank controls prior to drug administration. Samples of urine and feces were collected from 0–4 h, 4–8 h, 8–12 h, 12–24 h, 24–36 h, 36–48 h, 48–60 h, 60–72 h, and 72–84 h post-administration of 221s (2,9) with an oral dosage of 30 mg/kg. Urine samples were quantitatively measured for volume before storage at −80 °C while fecal samples were dried, pulverized, and weighed prior to preservation at −80 °C.
Six male SD rats were fasted for 12 h prior to drug administration, with free access to water. After being anesthetized with isoflurane, the rats were positioned supine on surgical platforms for common bile duct cannulation. Blank bile samples were collected following stabilization of bile flow. Following oral gavage of 30 mg/kg 221s (2,9), bile samples were sequentially collected during 0–2 h, 2–4 h, 4–8 h, 8–12 h, 12–24 h, 24–36 h, 36–48 h, and 48–72 h intervals. All biliary specimens were volumetrically measured and cryopreserved at −80 °C for subsequent analysis. Hydration maintenance was ensured through intraperitoneal administration of physiological saline during experimental procedures.
A total of 10 μL of IS (1 μg/mL) was added to each urinary sample (100 μL), followed by the addition of three volumes of acetonitrile. The mixtures were vortexed and centrifuged twice. Then, the supernatants were concentrated, lyophilized and reconstituted in 100 μL of acetonitrile. The supernatants were subjected to instrumental analysis after final centrifugation.
Fecal samples (100 mg) were homogenized with three volumes of saline via ultrasonication for 10 min. Then, 10 μL of IS (1 μg/mL) was added, before adding three volumes of acetonitrile. […] After vortexing and dual centrifugation, the supernatant was concentrated, lyophilized, and reconstituted in 100 μL of acetonitrile. The supernatants were subjected to instrument for analysis after final centrifugation.
Biliary samples (100 μL) were precisely aliquoted and added with 10 μL IS (1 μg/mL). Following homogenization, three volumes of acetonitrile were added to precipitate impurities. After vortexing and centrifuging twice, the supernatant was concentrated, lyophilized, and reconstituted in 100 μL of acetonitrile. […]

[3] = tested on: spontaneously hypertensive rats (SHR); assay: Serum creatinine and renal NOX2 expression in SHR; assay type: in vivo, rat
[4] = tested on: mice; set-up: method as in doi:10.19803/j.1672-8629.20220529; conditions: cited from earlier work
[5] = tested on: spontaneously hypertensive rats (SHR); set-up: method as in PMID 37446639; conditions: cited from earlier work
[6] = Stability in rat urine, feces and bile matrices (QC samples); assay type: in vitro ADME
Experimental: The stability of 221s (2,9) in rat urine, feces, and bile matrices was evaluated using QC samples at three concentration levels (10, 1000, and 1600 ng/mL) across six replicates under four conditions per matrix: three freeze–thaw cycles, short-term storage (room temperature, 2 h), long-term storage (−80 °C, 30 days), and autosampler rack storage (4 °C, 24 h). Stability was quantified by comparing post-storage concentrations (normalized to freshly prepared QC samples analyzed in the same batch) with nominal values, with deviations ≤15% considered acceptable. Dilution reliability was assessed by 5-fold dilution of QC samples (1000/1600 ng/mL) in each matrix using blank rat plasma. Dilution accuracy was verified by comparing measured concentrations (post-dilution factor correction) to nominal values, with acceptable criteria defined as ≤15% relative error (RE) and ≤15% relative standard deviation (RSD).

[7] = tested on: ACE; assay: ACE content in murine serum, cerebral tissue and renal compartments (preliminary data); assay type: in vivo; conditions: cerebral tissue, renal compartments
[8] = set-up: method as in PMID 23607051; conditions: cited from earlier work

Compound: CC(NC(=O)C(O)Cc1ccc(O)c(O)c1)C(=O)N1CCCC1C(=O)OC1CC2CCC1(C)C2(C)C (stereo not drawn) [221s (2,9)]
- serum level of angiotensin II (Ang II) [1]: significantly reduced
- serum level of angiotensin-converting enzyme (ACE) [1]: significantly reduced
- cumulative fecal output ([2]; feces, at 48 h, rats, unchanged drug): 36,726.31 ± 5507 ng
- fecal excretion rate ([2]; feces, between 4 and 8 h, rats, unchanged drug): 7994.29 ± 953.75 ng/h
- dose excreted ([2]; bile, bile duct cannulated rats, read-out: recovery of unchanged drug in bile (accumulative excretion rate, % of administered dose)): 0.00044 ± 2e-05%
- dose excreted ([2]; feces, rats, read-out: recovery of unchanged drug in feces (accumulative excretion rate, % of administered dose)): 0.73 ± 0.069%
- dose excreted ([2]; urine, rats, read-out: recovery of unchanged drug in urine (accumulative excretion rate, % of administered dose)): 0.02 ± 0.021%
- total recovery of unchanged drug across all matrices (% of administered dose) ([2]; urine + feces + bile, over 72 h, rats): below 1%
- peak urinary excretion rate ([2]; urine, at 8 h post-dosing, rats, unchanged drug): 138.81 ± 15.56 ng/h
- cumulative urinary excretion ([2]; urine, plateau by 48 h, rats, unchanged drug): 1479.81 ± 155.7 ng
- decrease of serum creatinine level ([3]; p < 0.01): 38.99%
- downregulation of renal NOX2 expression ([3]; p < 0.05): 16.23%
- effects on body weight, dietary intake, histopathological parameters of liver, lungs and kidneys ([4]; at 3000 mg/kg oral gavage): no substantial effects
- acute toxicity ([4]; oral gavage): no significant acute toxicity
- maximum tolerated dose ([4]; oral gavage): 3000 mg/kg
- antihypertensive efficacy compared with captopril [5]: comparable to that of captopril
- reduction of diastolic blood pressure [5]: 35 mmHg
- reduction of systolic blood pressure [5]: 50 mmHg
- Stability RE (%) ([6]; bile, autosampler rack (4 °C) for 24 h, spiked 10 ng/mL): −4.4%
- Stability RE (%) ([6]; bile, autosampler rack (4 °C) for 24 h, spiked 1000 ng/mL): −3.2%
- Stability RE (%) ([6]; bile, autosampler rack (4 °C) for 24 h, spiked 1600 ng/mL): −3.8%
- Stability RE (%) ([6]; bile, room temperature for 2 h, spiked 10 ng/mL): −5.2%
- Stability RE (%) ([6]; bile, room temperature for 2 h, spiked 1000 ng/mL): −4.5%
- Stability RE (%) ([6]; bile, room temperature for 2 h, spiked 1600 ng/mL): 5.1%
- Stability RE (%) ([6]; bile, three freeze/thaw cycles, spiked 10 ng/mL): −8.4%
- Stability RE (%) ([6]; bile, three freeze/thaw cycles, spiked 1000 ng/mL): −4.1%
- Stability RE (%) ([6]; bile, three freeze/thaw cycles, spiked 1600 ng/mL): 4.2%
- Stability RE (%) ([6]; bile, −80 °C for 30 days, spiked 10 ng/mL): −3.1%
- Stability RE (%) ([6]; bile, −80 °C for 30 days, spiked 1000 ng/mL): 1.5%
- Stability RE (%) ([6]; bile, −80 °C for 30 days, spiked 1600 ng/mL): 3.4%
- Stability RE (%) ([6]; feces, autosampler rack (4 °C) for 24 h, spiked 10 ng/mL): −4.9%
- Stability RE (%) ([6]; feces, autosampler rack (4 °C) for 24 h, spiked 1000 ng/mL): −2.2%
- Stability RE (%) ([6]; feces, autosampler rack (4 °C) for 24 h, spiked 1600 ng/mL): 4.6%
- Stability RE (%) ([6]; feces, room temperature for 2 h, spiked 10 ng/mL): −6.7%
- Stability RE (%) ([6]; feces, room temperature for 2 h, spiked 1000 ng/mL): −3.6%
- Stability RE (%) ([6]; feces, room temperature for 2 h, spiked 1600 ng/mL): −4.7%
- Stability RE (%) ([6]; feces, three freeze/thaw cycles, spiked 10 ng/mL): −5.3%
- Stability RE (%) ([6]; feces, three freeze/thaw cycles, spiked 1000 ng/mL): −4.8%
- Stability RE (%) ([6]; feces, three freeze/thaw cycles, spiked 1600 ng/mL): −3.2%
- Stability RE (%) ([6]; feces, −80 °C for 30 days, spiked 10 ng/mL): −6.4%
- Stability RE (%) ([6]; feces, −80 °C for 30 days, spiked 1000 ng/mL): −5.3%
- Stability RE (%) ([6]; feces, −80 °C for 30 days, spiked 1600 ng/mL): 2.8%
- degradation in urinary/fecal/biliary samples ([6]; room temperature 2 h, three freeze-thaw cycles, −80 °C 30 days, 4 °C autosampler 24 h): no significant degradation
- Stability RE (%) ([6]; urine, autosampler rack (4 °C) for 24 h, spiked 10 ng/mL): −7.3%
- Stability RE (%) ([6]; urine, autosampler rack (4 °C) for 24 h, spiked 1000 ng/mL): −6.3%
- Stability RE (%) ([6]; urine, autosampler rack (4 °C) for 24 h, spiked 1600 ng/mL): 3.9%
- Stability RE (%) ([6]; urine, room temperature for 2 h, spiked 10 ng/mL): −12.5%
- Stability RE (%) ([6]; urine, room temperature for 2 h, spiked 1000 ng/mL): −1.5%
- Stability RE (%) ([6]; urine, room temperature for 2 h, spiked 1600 ng/mL): 3.4%
- Stability RE (%) ([6]; urine, three freeze/thaw cycles, spiked 10 ng/mL): −9.4%
- Stability RE (%) ([6]; urine, three freeze/thaw cycles, spiked 1000 ng/mL): −6.4%
- Stability RE (%) ([6]; urine, three freeze/thaw cycles, spiked 1600 ng/mL): −2.6%
- Stability RE (%) ([6]; urine, −80 °C for 30 days, spiked 10 ng/mL): −8.7%
- Stability RE (%) ([6]; urine, −80 °C for 30 days, spiked 1000 ng/mL): −5.4%
- Stability RE (%) ([6]; urine, −80 °C for 30 days, spiked 1600 ng/mL): −5.5%
- ACE content [7]: reduces ACE content

Compound: CC1(C)C2CCC1(C)C(OC(=O)c1cc(O)c(O)c(O)c1)C2 (stereo not drawn) [bornyl gallate]
- tissue distribution [8]: pronounced renal accumulation alongside measurable brain distribution
